Laboratory results published in ChEMBL document CHEMBL1122733, “Synthesis and beta-adrenergic blocking activity of new aliphatic and alicyclic oxime ethers” (J Med Chem, 1984).

Test: Compound was evaluated for pKa value by potentiometric titration
Type: physicochemical

SMILES | pKa
C=CC(C)(C)OCC(O)CNC(C)(C)C (stereo unspecified) | 9.67
CC1C/C(=N/OCC(O)CNC(C)(C)C)CC(C)(C)C1 (stereo unspecified) | 9.41
CC1CC(OCC(O)CNC(C)(C)C)CC(C)(C)C1 (stereo unspecified) | 9.94
CC(C)(C)NCC(O)COC(C1CC1)C1CC1 (stereo unspecified) | 9.63
CC(C)(C)COCC(O)CNC(C)(C)C (stereo unspecified) | 9.68
CC(C)=NOCC(O)CNC(C)(C)C (stereo unspecified) | 9.42
CC(C)(C)NCC(O)CON=C(C1CC1)C1CC1 (stereo unspecified) | 9.64
C/C(=N/OCC(O)CNC(C)(C)C)C(C)C (stereo unspecified) | 9.27
CC(C)OCC(O)CNC(C)(C)C (stereo unspecified) | 9.9

Next, values leading:

pKa | SMILES
9.1 | CC(NOCC(O)CNC(C)(C)C)C1CC1 (stereo unspecified)
9.73 | CC(C)COCC(O)CNC(C)(C)C (stereo unspecified)
9.76 | CC(OCC(O)CNC(C)(C)C)C1CC1 (stereo unspecified)
9.45 | C/C(=N/OCC(O)CNC(C)(C)C)C1CC1 (stereo unspecified)
9.73 | CC(C)(C)NCC(O)COCC1CC1 (stereo unspecified)
9.57 | C/C(CC1CC1)=N/OCC(O)CNC(C)(C)C (stereo unspecified)
9.64 | CC(C)(C)NCC(O)CO/N=C\C1CC1 (stereo unspecified)
